# Experimental data: US11434270B2, “Protein for neutralizing programmed necrocytosis promotion antibody, and application of protein” (SHANGHAI JW INFLINHIX CO., LTD., priority 2015, dated 2022)
# Residue numbers refer to the chain shown, from its start.
# B1: QLQWLNRRANALLANGVELRDNQLVVPSEGLYLIYSQVLFKGQGCPSTHVLLTHTISRIAVSYQTKVNLLSAIKSPCQRE (protein)
# chain: QLQWLNRRANALLANGVELRDNQLVVPSEGLYLIYSQVLFKGQGCPSTHVLLTHTISRIAVSYQTKVNLLSAIKSPCQRE
# B2: QLQWLNRRANALLANGVELRDNQLVVPSEGLYLIYSQVLFKGQGCPSTHVLLTHTISRIAVFHQTKVNLLSAIKSPCQRE (protein)
# chain: B1 chain with S62F, Y63H
# B3: 244-12: cell necrosis-promoting monoclonal antibody binding TNF epitope QLVVPSE; light chain SEQ ID NO: 9, heavy chain SEQ ID NO: 10 (antibody, listed as Homo sapiens)
# heavy: QIQLVQSGPELKKPGETVKISCKASGYTFTNYGMNWVKQAPGKGLKWMGWINTYTGEPTYADDFKGRFAFSLETSANTAYLQINNLRNEGMATYFCARHYRYAWFPYWGQGTLVTVSAAKTTPPSVYPLAPGCGDTTGSSVTLGCLVKGYFPESVTVTWNSGSLSSSVHTFPALLQSGLYTMSSSVTVPSSTWPSQTVTCSVAHPASSTTVDKKLEPSGPISTINPCPPCKECHKCPAPNLEGGPSVFIFPPNIKDVLMISLTPKVTCVVVDVSEDDPDVQISWFVNNVEVHTAQTQTHREDYNSTIRVVSTLPIQHQDWMSGKEFKCKVNNKDLPSPIERTISKIKGLVRAPQVYILPPPAEQLSRKDVSLTCLVVGFNPGDISVEWASNGHTEENYKDTAPVLDSDGSYFIYSKLNMKTSKWEKTDSFSCNVRHEGLKNYYLKKTISRSPGK
# light: DIQMTQSPASLSASVGETVTITCRASGNIHIYLAWYQQKQGKSPQLLVYNAKTLADGVPSRFSGSGSGTQYSLKINSLQPEDFGSYYCQHFWSIPWTFGGGTKLEIKRADAAPTVSIFPPSSEQLTSGGASVVCFLNNFYPKDINVKWKIDGSERQNGVLNSWTDQDSKDSTYSMSSTLTLTKDEYERHNSYTCEATHKTSTSPIVKSFNRNEC
# Experiments:
# L929 cells = assay: Apoptosis and necrosis test (live/dead staining, active caspase-3, flow cytometry) in L929 cells; format: cell-based, mouse
# Description: (§1) In the presence of TNF or TNF peptide with or without 20 μM z-VAD-FMK (R & D Systems, Minneapolis, Minn.) or 20 μM Necrotatin-1 (PeproTech, Rocky Hill, N.J.) (Immunotools, Friesoythe, Germany), cells were incubated overnight (or the time shown in the incubation diagram). In some experiments, TNF was co-cultured with cells and the monoclonal antibody with indicated concentration or synovial fluid. Cells were stained using live/dead cell staining kit (Invitrogen, Paisley, UK) according to the manufacturer's manual and fixed using a cytofix/cytoperm fixation/permeabilization solution kit (BD Pharmingen, Oxford, UK). Intracellular staining was then performed using FITC-conjugated anti-caspase-3 antibody (Cell Signaling Technology, Danvers, Mass., USA). Cells were harvested by CyAn flow cytometer (Beckman Coulter, Fullerton, Calif.), and data were analysed by Flowjo (Tree Star Inc. Ashland, Oreg.).
# [1] = test system: cell necrosis-promoting antibody (244-12); assay: ELISA binding of polypeptide to cell necrosis-promoting antibody; settings: for binding to cell necrosis-promoting antibodies: summary table
# Description: (§2) However, the reaction with synovial fluid of a control patient without autoantibodies (SF010) was negative. ELISA plates were coated with 2 μg/ml of P11-17, blocked with BSA, incubated with 244-12, SF024, SF045, SF010 at room temperature for 1 hour, and then identified with horseradish peroxidase […] anti-mouse or human IgG secondary antibody.
# [2] = test system: cell necrosis caused by cell necrosis-promoting antibody; assay: Inhibition of cell necrosis caused by cell necrosis-promoting antibody; format: cell-based
# Description: as §1
# cells [3] = assay: Apoptosis and necrosis test, cell line not stated; format: cell-based; settings: summary table
# Description: as §1
# cells [4] = assay: Stimulation of cell proliferation; format: cell-based; settings: summary table
# [5] = test system: monoclonal antibody 244-12; assay: Competitive inhibition ELISA of TNF binding to monoclonal antibody 244-12; settings: plates coated with TNF, peptide added, then 244-12
# Description: (§3) ELISA plates were coated with 2 μg/ml of TNF at 4° C. overnight, or at 37° C. for 2 hours, and then incubated with a monoclonal antibodies at 37° C. for 1 hour. A second antibody conjugated to HRP was used to detect the reaction. For the inhibition assay, TNFR1 or synovial fluid was added together with the monoclonal antibody.
# METHODS: plates were coated with TNF, and the indicated peptides were added to each well, and then the monoclonal antibody 244-12 was added.
# [6] = test system: cell necrosis-promoting antibodies present in joint fluid of arthritis patients; assay: ELISA binding of polypeptide to autoantibodies in synovial fluid of arthritis patients; set-up: species or system human; settings: plate coated with 2 μg/ml of P11-17
# Description: as §2
# TNF = biological target: T1, TNF (Homo sapiens, UniProt P01375); assay: ELISA screening of monoclonal antibodies for binding to TNF; settings: screening of 33 monoclonal antibodies
# T1 construct: purchased Immunotools
# Description: as §3
# TNF receptors = assay: L929 cell immunofluorescence microscopy: TNF/antibody binding to cell surface TNF receptors; format: cell-based, mouse
# Description: At room temperature, 20 ng/ml of TNF and 2 μg/ml of mAb M26 or 244-12 were incubated for 1 hour. The mixture of TNF/M26 or TNF/244-12 were incubated on ice with L929 cells grown on coverslip for an another 15 minutes. The cells were fixed with 4% paraformaldehyde (PBS formulation) were for 10 minutes, blocked with phosphate buffer containing 0.5% BSA and 0.1% cold water fish gelatin for 15 minutes, and then incubated with rabbit anti-TNFR1 antibody (Abeam) for 1 hour. The cells were washed with PBS and then incubated with the relevant secondary antibody coupled to Alexa Fluor 488 or Alexa Fluor 568 (Invitrogen). Then the sample washed with PBS was mounted with Gelvatol/DABCO (Sigma-Aldrich). DNA was counterstained with DAPI (Sigma-Aldrich). All samples were analyzed by fluorescence microscopy at 60× using Nikon Eclipse 80i. Images were taken with NIS-Elements AR3.0 software using Hamamatsu camera.
# [7] = test system: C2812 cells (chondrocytes); assay: Apoptosis test (active caspase-3) in C2812 chondrocytes; format: cell-based, human; settings: antibody added to TNF
# Description: as §1
# T1 sequence (P01375 whole entry): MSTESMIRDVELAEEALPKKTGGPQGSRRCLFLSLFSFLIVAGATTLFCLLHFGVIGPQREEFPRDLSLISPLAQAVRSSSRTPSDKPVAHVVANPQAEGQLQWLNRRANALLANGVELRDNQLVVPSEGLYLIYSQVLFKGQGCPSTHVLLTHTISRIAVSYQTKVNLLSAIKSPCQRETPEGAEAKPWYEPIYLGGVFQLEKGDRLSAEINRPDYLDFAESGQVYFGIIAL
Molecule,binding to cell necrosis-promoting antibodies [1],Inhibition of cell necrosis ([2]; summary table),Apoptosis (cells [3]),Necrosis (cells [3]),Stimulation of cell proliferation (cells [4]),competitive inhibition of binding of TNF to mAb 244-12 [5],other results
"CN1C(=O)C(Cc2c[nH]c3ccccc23)NC1=S (stereo not drawn) [Nec-1, Necrotatin-1, reference compound]",–,–,–,–,–,–,"necrosis induced by antibody 244-12 + TNF (L929 cells; Nec-1 added to 244-12+TNF, necrosis converted into apoptosis): can be inhibited"
Tumor necrosis factor α [TNFα],Yes,no,Yes,Yes,Yes,–,cell fate of L929 cells (L929 cells; TNF alone): apoptosis
QLVVPSEGLY [P13-3],Yes,Yes,no,no,no,significantly inhibited,–
NQLVVPSEGL [P13-2],Yes,Yes,no,no,no,significantly inhibited,–
DNQLVVPSEG [P13-1],Yes,Yes,no,no,no,significantly inhibited,–
RDNQLVVPSE [P12-10],Yes,Yes,no,no,no,significantly inhibited,–
B1,Yes,Yes,no,no,no,–,"binding to purified cell necrosis-promoting antibody (244-12) ([1]; ELISA plate coated with 2 μg/ml of P11-17): can bind; reaction with synovial fluid of a control patient without autoantibodies ([6]; sample SF010): negative; binding to cell necrosis-promoting antibodies in joint fluid of arthritis patients ([6]; samples SF024, SF045): bind; Inhibition of cell necrosis ([2]; necrosis caused by purified 244-12 or by antibody in patients' synovial fluid (SF002, SF045)): can effectively inhibit cell necrosis"
B2,Yes,Yes,no,no,no,–,–
B3,–,–,–,–,–,–,"binding to TNF by ELISA test (TNF): strongest; direct binding of antibody to cell surface (TNF receptors; absence of TNF): cannot directly bind to cell surface; effect of antibody binding to TNF on binding of TNF to TNF receptors (TNF receptors; confocal micrograph, L929 cells, TNF present): did not affect; TNF-induced apoptosis (expression of active caspase-3) (L929 cells; L929 cells, antibody added to TNF): blocked; cell fate of L929 cells (L929 cells; antibody added together with TNF): necrosis; TNF-induced apoptosis (expression of active caspase-3) [7]: blocked"
